Values of other authors in US20190183792A1, “COMPOSITION AND METHOD FOR TREATING HERPESVIRUS IN MAMMALS” (VELOCE BIOPHARMA, LLC, priority 2016, published 2019).

How the values were obtained:
[1] = compared among the antivirals
[2] = tested on: Human herpes simplex virus
[3] = tested on: Feline Herpesvirus; details: research by Nasisse
[4] = tested on: ocular herpesvirus infection; details: canine models in vivo

SMILES	solubility [1]	effectiveness against Feline Herpesvirus (rank order) [3]	other results
O=c1[nH]c(=O)n([C@H]2C[C@H](O)[C@@H](CO)O2)cc1I [Idoxuridine]	poorly soluble		
Nc1nc2c(ncn2COCCO)c(=O)[nH]1 [Acyclovir]		not effective	effectiveness against Human herpes simplex virus [2]: most effective
Nc1ncnc2c1ncn2[C@@H]1O[C@H](CO)[C@@H](O)[C@@H]1O [Adenine Arabinoside]		then Adenine Arabinoside	
O=c1[nH]c(=O)n([C@H]2C[C@H](O)[C@@H](CO)O2)cc1C(F)(F)F [Triflurothymidine]	most soluble	most effective	effectiveness [1]: most effective; toxicity [1]: least toxic
Nc1ccn(C[C@@H](CO)OCP(=O)(O)O)c(=O)n1 [Cidofovir]			local ocular toxicity [4]: local ocular toxicity is significant; viral shedding [4]: decrease viral shedding
